# Results taken from patent publication US10376465B2, “Monovalent metal cation dry powders for inhalation” (priority 2010, dated 2019).
# Like-named read-outs stand apart in the source and are kept apart here.
# How the values were obtained:
# [1] = Solubility of salts and drugs in water / ethanol; assay type: physicochemical
# Excerpt: Spray drying homogenous particles requires that the ingredients of interest be solubilized in solution or suspended in a uniform and stable suspension. Most of the materials mentioned in the material section are sufficiently water-soluble to prepare suitable spray drying solutions. […] As a result of these low solubilities, formulation feedstock development work was necessary to prepare solutions or suspensions that could be spray dried.
# For the spray drying process, the salts, excipients and other drugs were dissolved or suspended in a solvent (e.g., water). The solid concentrations (w/v) were chosen dependent on the solubility of the different components (see Table 2). The ratios used for formulations were based on the molecular weight of the anhydrous salts (see Table 3).
# [2] = test system: mice sensitized and challenged with ovalbumin (OVA); conditions: literature (Riesenfeld 2010); cited from earlier work
solubility in ethanol [1],solubility in water [1],solubility in ethanol ([1]; in words),solubility in water ([1]; in words),Structure (SMILES),eosinophilic cells and total cellularity in the mouse OVA model [2]
slightly soluble,practically insoluble,–,–,"CCCC1O[C@@H]2C[C@H]3[C@@H]4CCC5=CC(=O)C=C[C@]5(C)[C@H]4[C@@H](O)C[C@]3(C)[C@]2(C(=O)CO)O1 (stereo partly shown) [Budesonide, budesonide]",–
slightly soluble,practically insoluble,–,–,"CCC(=O)O[C@]1(C(=O)SCF)[C@H](C)C[C@H]2[C@@H]3C[C@H](F)C4=CC(=O)C=C[C@]4(C)[C@@]3(F)[C@@H](O)C[C@@]21C [Fluticasone propionate, fluticasone propionate]",reduce eosinophilic cells and total cellularity
–,–,slightly soluble,practically insoluble,OCc1cc(C(O)CNCCCCCCOCCCCc2ccccc2)ccc1O (stereo not shown) [salmeterol xinafoate],–
